Converted amounts (≈) assume the structure as drawn.
Tests used:
AECO001 HSA AGP = experiment: MIC broth microdilution, AECO001 HSA AGP; format: cell-based, E. coli; conditions: Escherichia coli
Procedure, shortened: (§1)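 Strains were grown overnight at 35° C. on Mueller-Hinton agar, suspended to 0.5 McFarland and diluted to a final 3×10^5–7×10^5 CFU/mL. They were then exposed to 2-fold serial drug dilutions in cation-adjusted Mueller-Hinton broth and incubated 18-24 hours at 35° C.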

[1] = test system: ASAU001 (laboratory strain of S. aureus, ATCC29213); experiment: MIC broth microdilution, ASAU001; format: cell-based; conditions: Staphylococcus aureus, ATCC29213, read-out: MIC ASAU001
Procedure, shortened: as §1

AECO001 (ATCC25922) = experiment: MIC broth microdilution, AECO001; format: cell-based, E. coli; conditions: Escherichia coli, ATCC25922, read-out: MIC AECO001
Procedure, shortened: as §1

[2] = test system: APAE006 in the presence of 8 micrograms per milliliter of polymyxin B nonapeptide; format: cell-based, P. aeruginosa; conditions: in the presence of 8 micrograms per milliliter of polymyxin B nonapeptide
Procedure, shortened: (§2)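 (ambient air) in cation-adjusted MHB; inoculum from 0.5 McFarland suspensions, final 3×10^5–7×10^5 CFU/mL; 2-fold serial drug dilutions per CLSI. APAE006: P. aeruginosa with all efflux pumps inactivated.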

APAE001 (ATCC27853) = experiment: MIC broth microdilution, APAE001; format: cell-based, P. aeruginosa; conditions: Pseudomonas aeruginosa, ATCC27853, read-out: MIC APAE001, APAE001 is ATCC27853
Procedure, shortened: as §1

[3] = test system: AECO063 (ATCC25922 bearing an acrAB mutation); experiment: microbe, parasite or virus in culture; format: cell-based, E. coli; conditions: Escherichia coli, ATCC25922, read-out: MIC AECO063
Procedure, shortened: as §1

[4] = test system: AABA1060 (clinical isolate of Acinetobacter baumannii); experiment: MIC broth microdilution, AABA1060; format: cell-based; conditions: Acinetobacter baumannii, read-out: MIC AABA1060
Procedure, shortened: as §1

[5] = test system: APAE006 (strain of P. aeruginosa in which all efflux pumps are inactivated); experiment: microbe, parasite or virus in culture; format: cell-based; conditions: Pseudomonas aeruginosa, read-out: MIC APAE006, P. aeruginosa, all efflux pumps inactivated
Procedure, shortened: as §2

O=C(NC(C(=O)NO)C1CCOCC1)c1ccc(C#Cc2ccc(CN3CCOCC3)cc2)cc1 (stereo not shown) [Example 67-5, N-[hydroxycarbamoyl-(tetrahydro-pyran-4-yl)-methyl]-4-(4-morpholin-4-ylmethyl-phenylethynyl)-benzamide]
MIC (AECO001 HSA AGP): 2 to 16 µg/mL (≈ 4.19 to 33.5 µM)
MIC [1]: > 64 µg/mL
MIC (AECO001 (ATCC25922)): < 2 µg/mL
MIC APAE006 + PMBN [2]: A (MIC's of 2.0 μg/mL or less = A)
MIC (APAE001 (ATCC27853)): 2 to 16 µg/mL (≈ 4.19 to 33.5 µM)
MIC [3]: < 2 µg/mL
MIC [4]: 16 to 64 µg/mL (≈ 33.5 to 134 µM)
MIC [5]: < 2 µg/mL

C[C@@H](O)[C@H](NC(=O)c1ccc(C#C/C=C/c2ccc(CNC3CC3)cc2)cc1)C(=O)NO [Example 102-1, 4-[(E)-4-(4-Cyclopropylaminomethyl-phenyl)-but-3-en-1-ynyl]-N-((1S,2R)-2-hydroxy-1-hydroxycarbamoyl-propyl)-benzamide]
MIC (AECO001 HSA AGP): 2 to 16 µg/mL (≈ 4.61 to 36.9 µM)
MIC [1]: 16 to 64 µg/mL (≈ 36.9 to 148 µM)
MIC (AECO001 (ATCC25922)): < 2 µg/mL
MIC APAE006 + PMBN [2]: A (MIC's of 2.0 μg/mL or less = A)
MIC (APAE001 (ATCC27853)): 2 to 16 µg/mL (≈ 4.61 to 36.9 µM)
MIC [3]: < 2 µg/mL
MIC [4]: 16 to 64 µg/mL (≈ 36.9 to 148 µM)
MIC [5]: < 2 µg/mL

C[C@@H](O)[C@H](NC(=O)c1ccc(C=C(F)C#Cc2ccc(CN3CCOCC3)cc2)cc1)C(=O)NO [Example 109-1, 4-(2-fluoro-4-(4-(morpholinomethyl)phenyl)but-1-en-3-ynyl)-N-((2S,3R)-3-hydroxy-1-(hydroxyamino)-1-oxobutan-2-yl)benzamide]
MIC (AECO001 HSA AGP): 2 to 16 µg/mL (≈ 4.15 to 33.2 µM)
MIC [1]: > 64 µg/mL
MIC (AECO001 (ATCC25922)): < 2 µg/mL
MIC APAE006 + PMBN [2]: A (MIC's of 2.0 μg/mL or less = A)
MIC (APAE001 (ATCC27853)): 2 to 16 µg/mL (≈ 4.15 to 33.2 µM)
MIC [3]: < 2 µg/mL
MIC [4]: 2 to 16 µg/mL (≈ 4.15 to 33.2 µM)
MIC [5]: < 2 µg/mL

O=C(N[C@H](C(=O)NO)C1CCS(=O)(=O)CC1)c1ccc(/C=C/C#Cc2ccc(CN3CCOCC3)cc2)cc1 [Example 110-8]
MIC (AECO001 HSA AGP): 16 to 64 µg/mL (≈ 29 to 116 µM)
MIC [1]: > 64 µg/mL
MIC (AECO001 (ATCC25922)): < 2 µg/mL
MIC APAE006 + PMBN [2]: A (MIC's of 2.0 μg/mL or less = A)
MIC (APAE001 (ATCC27853)): 2 to 16 µg/mL (≈ 3.63 to 29 µM)
MIC [3]: < 2 µg/mL
MIC [4]: 16 to 64 µg/mL (≈ 29 to 116 µM)
MIC [5]: < 2 µg/mL

C[C@@H](O)[C@H](NC(=O)c1ccc(C#C/C=C/c2ccc(CN3CCOCC3)cc2)cc1)C(=O)NO [Example 96-1, N-((1S,2R)-2-Hydroxy-1-hydroxycarbamoyl-propyl)-4-[(E)-4-(4-morpholin-4-ylmethyl-phenyl)-but-3-en-1-ynyl]-benzamide]
MIC (AECO001 HSA AGP): < 2 µg/mL
MIC [1]: > 64 µg/mL
MIC (AECO001 (ATCC25922)): < 2 µg/mL
MIC APAE006 + PMBN [2]: A (MIC's of 2.0 μg/mL or less = A)
MIC (APAE001 (ATCC27853)): 2 to 16 µg/mL (≈ 4.31 to 34.5 µM)
MIC [3]: < 2 µg/mL
MIC [4]: 2 to 16 µg/mL (≈ 4.31 to 34.5 µM)
MIC [5]: < 2 µg/mL

CC(C)(O)[C@H](NC(=O)c1ccc(/C=C/C#Cc2ccc(CN3CCOCC3)cc2)cc1)C(=O)NO [Example 110-7]
MIC (AECO001 HSA AGP): 2 to 16 µg/mL (≈ 4.19 to 33.5 µM)
MIC [1]: > 64 µg/mL
MIC (AECO001 (ATCC25922)): < 2 µg/mL
MIC APAE006 + PMBN [2]: A (MIC's of 2.0 μg/mL or less = A)
MIC (APAE001 (ATCC27853)): 2 to 16 µg/mL (≈ 4.19 to 33.5 µM)
MIC [3]: < 2 µg/mL
MIC [4]: < 2 µg/mL
MIC [5]: < 2 µg/mL

CC(C)(O)[C@H](NC(=O)c1ccc(C#C/C=C/c2ccc(CO)cc2)cc1)C(=O)NO [Example 101-5]
MIC (AECO001 HSA AGP): 2 to 16 µg/mL (≈ 4.9 to 39.2 µM)
MIC [1]: 16 to 64 µg/mL (≈ 39.2 to 157 µM)
MIC (AECO001 (ATCC25922)): < 2 µg/mL
MIC APAE006 + PMBN [2]: A (MIC's of 2.0 μg/mL or less = A)
MIC (APAE001 (ATCC27853)): < 2 µg/mL
MIC [3]: < 2 µg/mL
MIC [4]: < 2 µg/mL
MIC [5]: < 2 µg/mL

C[C@@H](N)[C@H](NC(=O)c1ccc(C#Cc2ccc(CNCC3CCCO3)cc2)cc1)C(=O)NO (stereo partly shown) [Example 118-5]
MIC (AECO001 HSA AGP): 2 to 16 µg/mL (≈ 4.44 to 35.5 µM)
MIC [1]: > 64 µg/mL
MIC (AECO001 (ATCC25922)): 2 to 16 µg/mL (≈ 4.44 to 35.5 µM)
MIC APAE006 + PMBN [2]: A (MIC's of 2.0 μg/mL or less = A)
MIC (APAE001 (ATCC27853)): < 2 µg/mL
MIC [3]: < 2 µg/mL
MIC [4]: 16 to 64 µg/mL (≈ 35.5 to 142 µM)
MIC [5]: < 2 µg/mL

C[C@@H](O)[C@H](NC(=O)c1ccc(C#Cc2ccc(O)cc2)cc1)C(=O)NO [Example 133-12]
MIC (AECO001 HSA AGP): 2 to 16 µg/mL (≈ 5.64 to 45.2 µM)
MIC [1]: 16 to 64 µg/mL (≈ 45.2 to 181 µM)
MIC (AECO001 (ATCC25922)): < 2 µg/mL
MIC APAE006 + PMBN [2]: A (MIC's of 2.0 μg/mL or less = A)
MIC (APAE001 (ATCC27853)): < 2 µg/mL
MIC [3]: < 2 µg/mL
MIC [4]: 16 to 64 µg/mL (≈ 45.2 to 181 µM)
MIC [5]: < 2 µg/mL

C[C@@H](N)[C@H](NC(=O)c1ccc(C#Cc2ccc(CN3CCN(C)CC3)cc2)cc1)C(=O)NO [Example 115-4]
MIC (AECO001 HSA AGP): 16 to 64 µg/mL (≈ 35.6 to 142 µM)
MIC [1]: > 64 µg/mL
MIC (AECO001 (ATCC25922)): 2 to 16 µg/mL (≈ 4.45 to 35.6 µM)
MIC APAE006 + PMBN [2]: A (MIC's of 2.0 μg/mL or less = A)
MIC (APAE001 (ATCC27853)): < 2 µg/mL
MIC [3]: < 2 µg/mL
MIC [4]: 16 to 64 µg/mL (≈ 35.6 to 142 µM)
MIC [5]: < 2 µg/mL

C[C@@H](N)[C@H](NC(=O)c1ccc(C#Cc2ccc(CN(C)Cc3cccnc3)cc2)cc1)C(=O)NO [Example 115-5]
MIC (AECO001 HSA AGP): 2 to 16 µg/mL (≈ 4.24 to 33.9 µM)
MIC [1]: > 64 µg/mL
MIC (AECO001 (ATCC25922)): < 2 µg/mL
MIC APAE006 + PMBN [2]: A (MIC's of 2.0 μg/mL or less = A)
MIC (APAE001 (ATCC27853)): 2 to 16 µg/mL (≈ 4.24 to 33.9 µM)
MIC [3]: < 2 µg/mL
MIC [4]: 2 to 16 µg/mL (≈ 4.24 to 33.9 µM)
MIC [5]: < 2 µg/mL
